What was measured:
[1] = Cyclic voltammetry, reduction of nitro group; assay type: physicochemical; details: for −EpaIII: anodic peak potential of couple IIIc/IIIa; for −EpaIII / −EpcIII / −E1/2: given with inverted sign, vs. Ag/AgCl electrode in DMSO; for −EpcIII: cathodic peak potential of couple IIIc/IIIa; for Ipa/Ipc: current ratio RNO2/RNO2•−, couple IIIc/IIIa, DMSO; for −E1/2: half-wave potential of couple IIIc/IIIa
Method: Cyclic Voltammetry (CV) was carried out using a Metrohm Autolab instrument model PGSTAT204, using dimethyl sulfoxide (DMSO) as the solvent (1 mM solutions), tetrabutylammonium perchlorate (0.1 M TBAP) as the supporting electrolyte, a hanging drop mercury electrode (HDME) as the working electrode, Ag/AgCl (3M KCl) as the reference electrode, and a graphite rod as the counter electrode. All measurements were performed after bubbling with nitrogen (N2) for 10 min.
Using Nicholson’s procedure, the Ipa/Ipc values (RNO2/RNO2^•−) were measured from each cyclic voltammogram with a scan rate between 0.1 and 2.5 V/s.

[2] = tested on: RAW 264.7 cells; test: Cytotoxicity MTT assay on RAW 264.7 cells; assay type: cell-based; details: Mus musculus, RAW264.7, in vitro cytotoxicity, murine RAW 264.7 macrophages
Method: The compounds under study, dissolved in dimethylsulfoxide (DMSO), were added to the culture media at 10–200 μM. RAW 264.7 cells were cultured in 96-well plates (5 × 10^4 cells per well), and 100 μL of 0.5 mg/mL MTT was added to each well. The DMSO final concentration was less than 0.1% v/v. After incubation for 4 h at 37 °C, the generated water-insoluble formazan dye was dissolved by adding 100 μL of 10% w/v sodium dodecyl sulfate (SDS) in 0.01 M HCl. The plates were further incubated overnight at 37 °C; […] 0.5% of Triton X-100 was added as a positive control. The plates were further incubated overnight at 37 °C, and the optical density of the wells was determined using a microplate reader (Asys Expert Plus©, Asys Hitachi, Vienna, Austria) at 570 nm. Under these conditions, the optical density is directly proportional to the viable cell number in each well. All experiments were performed at least thrice and data were reported as means and their standard deviations from triplicate cultures. Results are reported as IC50 regarding the control (uninfected cells in culture medium)

[3] = tested on: T. cruzi epimastigote stage (Dm28c strain); test: Epimastigotes viability study (MTT); assay type: cell-based, Trypanosoma cruzi; details: for SI Epimastigote: Selectivity Index IC50 macrophages RAW 264.7/IC50 epimastigotes Dm28c; for IC50: Trypanosoma cruzi, T. cruzi Dm28c epimastigotes, 24 h, MTT
Method: The trypanocidal activity was evaluated against the T. cruzi epimastigote stage (Dm28c strain). It was measured through the MTT assay using 0.22 mg/mL phenazine methosulfate (as an electron carrier). T. cruzi epimastigote from the author's collection (Programa de Farmacología Molecular y Clínica, Facultad de Medicina, Universidad de Chile, Santiago, Chile) were grown at 28 °C in liver infusion tryptase (LIT) medium, as reported earlier, but replacing blood with 4 μM hemin. […] fetal bovine serum (FBS) was added to a final concentration of 10% v/v. In this colorimetric assay for testing the trypanocidal activity, the compounds were dissolved in DMSO. They were added to 3 × 10^6 parasites/mL at 100 μM final concentrations in RPMI 1640 culture medium without phenol red for 24 h at 28 °C. The final concentration of DMSO was less than 0.1% v/v. […] The MTT assay, which was described previously, determined the viability of the epimastigotes.

[4] = tested on: Dm28c trypomastigotes; test: Trypomastigote viability study (MTT); assay type: cell-based, Trypanosoma cruzi; details: for SI Trypomastigote: Selectivity Index IC50 macrophages RAW 264.7/IC50 trypomastigotes Dm28c; for IC50: Trypanosoma cruzi, T. cruzi Dm28c trypomastigotes, 24 h, MTT
Method: Vero cells (ATCC CCL-81) were infected with Dm28c trypomastigotes at a 1:3 (cell: parasite) ratio. T. cruzi trypomastigotes were initially obtained from primary cultures of peritoneal macrophage from chagasic mice. […] Vero cell cultures were then infected with trypomastigotes and incubated at 37 °C in humidified air and 5% CO2 for 5–7 days. After that time, the culture medium was collected and centrifuged at 500× g for 5 min. The trypomastigote-containing pellet was re-suspended in RPMI 1640 supplemented with inactivated FBS and penicillin–streptomycin at a final 1 × 10^7 parasites/mL density. Trypomastigote viability assays were performed using the MTT reduction method as described previously. Then, 1 × 10^7 parasites/mL was incubated in RPMI 1640 with inactivated FBS at 37 °C for 24 h with or without the studied compounds.

[5] = tested on: RAW 264.7 cells; test: Plasma membrane permeability (SYTOX Green) of RAW 264.7 cells; assay type: cell-based, murine
[6] = tested on: CL-B5 epimastigotes; design: method as in PMID 23124218; details: cited from earlier work
[7] = tested on: trypomastigotes of T. cruzi; test: Plasmatic membrane permeability assay (SYTOX Green) on trypomastigotes; assay type: cell-based, Trypanosoma cruzi; details: compound at IC50, 1 h
Method: Late growth-phase trypomastigotes of T. cruzi (3 × 10^6/well) were washed and incubated in the dark with 1 μM SYTOX Green probe (Molecular Probes) in HANKS′ balanced salts solution (HBSS; Sigma-Aldrich) supplemented with 10 mM D-glucose (HBSS + Glu). The test compound was added at IC50, and fluorescence was measured after 1 h of treatment. The maximum permeabilization was obtained with 0.5% Triton X-100. Fluorescence intensity was determined using Varioskan™ LUX multimode microplate reader (ThermoFisher Scientific, Waltham, MA, USA), with excitation and emission wavelengths of 485 and 520 nm, respectively. The following internal controls were used in the evaluation: (i) the background fluorescence of the compound at the respective wavelengths and (ii) the possible interference of DMSO. Samples were tested in triplicate.

[8] = tested on: Dm28c trypomastigote of T. cruzi; test: Mitochondrial membrane potential (TMRM incorporation); assay type: cell-based, Trypanosoma cruzi; details: trypomastigotes, compound at IC50, 3 h; compared to negative control
Method: Mitochondrial membrane potential (ψm) was determined by the incorporation of the fluorescent probe tetramethylrhodamine methyl ester (TMRM). […] Then, carbonylcyanide-m-chlorophenylhydrazone (CCCP, 10 µM) was added as a control and incubated at 37 °C in humidified air and 5% CO2 for 3 h. Parasites were washed with phosphate-buffered saline (pH 7.4), and suspensions were incubated with TMRM (50 nM) for 15 min. Fluorescence measurements determined the incorporation of the probe at an excitation wavelength of 550 nm and an emission of 590 nm. All the assays were performed in darkness.

[9] = tested on: trypomastigote form of T. cruzi; test: Analysis of ATP levels (CellTiter-Glo); assay type: cell-based, Trypanosoma cruzi; details: trypomastigotes; relative to negative control
Method: The CellTiter-Glo® Luminescent Cell Viability Assay (Promega, Fitchburg, WI, USA) was used to detect variations in ATP levels. After incubation, treated parasites were centrifuged (6000 rpm, 10 min, 4 °C) and treated according to the manufacturer’s instructions. Luminescence was determined using the Varioskan™ LUX multi-mode microplate reader (ThermoFisher Scientific). Results were expressed as a percentage relative to the negative control without treatment. Sodium azide (20 mM NaN3 for 3 h) was added as a positive control and benznidazole as a reference treatment. (1) %relative control=luminescence sample/luminescence control∗100

| Compound | −EpaIII [1] [V] | −EpcIII [1] [V] | Ipa/Ipc [1] | −E1/2 [1] [V] | IC50 [3] [µM] | melting point [°C] | IC50 [2] [µM] | SI Epimastigote [3] | SI Trypomastigote [4] | IC50 [4] [µM] | effect on plasma membrane permeability (SYTOX Green incorporation) [5] | trypanocidal activity against CL-B5 epimastigotes [6] | alteration of plasma membrane permeability (SYTOX Green incorporation) [7] | effect on mitochondrial membrane potential (ψm) [8] | ATP levels [9] |
| --- | --- | --- | --- | --- | --- | --- | --- | --- | --- | --- | --- | --- | --- | --- | --- |
| CC(C)n1c2ccc([N+](=O)[O-])cc2c(=O)n1Cc1ccccc1 [Compound 2b] | – | – | – | – | – | – | – | – | – | – | – | effective against CL-B5 epimastigotes | – | – | – |
| O=c1[nH]n(-c2ccccc2)c2ccc([N+](=O)[O-])cc12 [Compound 22] | 1.26 | – | 0.59 | 1.33 | 6.2 ± 0.9 | – | > 200 | >32.3 | >13.1 | 15.3 ± 1.2 | – | – | alter plasma membrane permeability | statistically significant impact | significantly reduced ATP levels |
| COc1ccccc1Cn1c(=O)c2cc([N+](=O)[O-])ccc2n1C [Compound 15, 2-(2-Methoxybenzyl)-1-methyl-5-nitro-1,2-dihydro-3H-indazol-3-one] | 1.04 | 1.16 | 0.96 | 1.10 | > 100 | 210 to 212 | 36.3 ± 1.1 | – | – | > 100 | significantly affect permeability | – | – | – | – |
| CCCn1c2ccc([N+](=O)[O-])cc2c(=O)n1Cc1ccccc1 [Compound 2a] | – | – | – | – | – | – | – | – | – | – | – | effective against CL-B5 epimastigotes | – | – | – |
| Cn1c2ccc([N+](=O)[O-])cc2c(=O)n1Cc1ccc(Cl)cc1 [Compound 11, 2-(4-Chlorobenzyl)-1-methyl-5-nitro-1,2-dihydro-3H-indazol-3-one] | 0.99 | 1.21 | 0.89 | 1.10 | 70.1 ± 2.1 | 128 to 130 | 68.8 ± 1.2 | 1.0 | 1.0 | 67.8 ± 1.7 | significantly affect permeability | – | – | – | – |
| Cn1c2ccc([N+](=O)[O-])cc2c(=O)n1Cc1cccc(Br)c1 [Compound 13, 2-(3-Bromobenzyl)-1-methyl-5-nitro-1,2-dihydro-3H-indazol-3-one] | 0.99 | 1.13 | 0.97 | 1.06 | 79.8 ± 2.3 | 149 to 151 | > 200 | >2.5 | >4.6 | 43.6 ± 1.1 | – | – | alter plasma membrane permeability | statistically significant impact | significantly reduced ATP levels |
| Cn1c2ccc([N+](=O)[O-])cc2c(=O)n1Cc1ccccc1 [Compound 1] | 1.02 | 1.12 | 0.94 | 1.07 | 10.1 ± 0.6 | – | 37.8 ± 1.2 | 3.7 | – | > 100 | – | effective against CL-B5 epimastigotes | – | – | – |

Now from value to compound, other results behind:

| −EpaIII [1] [V] | −EpcIII [1] [V] | Ipa/Ipc [1] | −E1/2 [1] [V] | IC50 [3] [µM] | melting point [°C] | Compound | IC50 [2] [µM] | SI Epimastigote [3] | SI Trypomastigote [4] | IC50 [4] [µM] | effect on plasma membrane permeability (SYTOX Green incorporation) [5] | trypanocidal activity against CL-B5 epimastigotes [6] | alteration of plasma membrane permeability (SYTOX Green incorporation) [7] | effect on mitochondrial membrane potential (ψm) [8] | ATP levels [9] |
| --- | --- | --- | --- | --- | --- | --- | --- | --- | --- | --- | --- | --- | --- | --- | --- |
| 0.95 | 1.13 | 0.99 | 1.04 | 8.9 ± 1.3 | – | Cn1[nH]c2ccc([N+](=O)[O-])cc2c1=O [Compound 3a] | 26.1 ± 0.8 | 2.9 | 1.4 | 18.5 ± 0.9 | significantly affect permeability | – | – | – | – |
| 1.03 | 1.13 | 1.00 | 1.08 | 28.6 ± 2.1 | – | Cn1c(=O)c2cc([N+](=O)[O-])ccc2n1C [Compound 3b] | > 200 | – | >4.8 | 41.8 ± 1.1 | – | – | alter plasma membrane permeability | statistically significant impact | significantly reduced ATP levels |

Source: paper PMC11508334, “In Vitro Evaluation of New 5-Nitroindazolin-3-one Derivatives as Promising Agents against Trypanosoma cruzi” (International Journal of Molecular Sciences, 2024)
